Assay results: patent US4237305A, “Substituted phenylacetic acid compounds and process for preparation thereof” (Fujisawa Pharmaceutical Co., Ltd., priority 1976, dated 1980)

Key:
Escherichia coli 114 = test: MIC (Minimum Inhibitory Concentration) determined by conventional method, Escherichia coli 114; type: cell-based
From the text: (§1) MIC (Minimum Inhibitory Concentration) value
(§2) determined by conventional method

[1] = test system: Pseudomonas aeruginosa 10490; test: MIC (Minimum Inhibitory Concentration) determined by conventional method, Pseudomonas aeruginosa 10490; type: cell-based
From the text: as §1, §2

NC(CCOc1ccc(C(=O)C(=O)NC2CN(C(C(=O)O)c3ccc(O)cc3)C2=O)cc1)C(=O)O (centres unmarked) [d.circle.]
MIC (Minimum Inhibitory Concentration) value (Escherichia coli 114): 1.6
MIC (Minimum Inhibitory Concentration) value [1]: 25
